Reference: the NIST ThermoML archive (doi:10.1021/acs.jced.5b00201)
Numbers after ± are expanded uncertainties.

Experiment: xn = mol fraction of the nth substance listed
Details: 298.2 K, 100 kPa, Liquid, Pycnometric method

Question: With Cc1ccc(-c2ncc(Cl)cc2-c2ccc(S(C)(=O)=O)cc2)cn1 [etoricoxib] + C1COCCO1 as the compound, how does the mass density (x1 = 0.07301) read?
Answer: 1026.8 ± 0.9 kg/m3

Question: With Cc1ccc(-c2ncc(Cl)cc2-c2ccc(S(C)(=O)=O)cc2)cn1 [etoricoxib] + CC(=O)N(C)C as the compound, how does the mass density (x1 = 0.08112) read?
Answer: 942.7 ± 0.8 kg/m3

Question: For Cc1ccc(-c2ncc(Cl)cc2-c2ccc(S(C)(=O)=O)cc2)cn1 [etoricoxib] + CCO, which mass density (x1 = 0.05374) is on record?
Answer: 819.9 ± 0.7 kg/m3

Question: For Cc1ccc(-c2ncc(Cl)cc2-c2ccc(S(C)(=O)=O)cc2)cn1 [etoricoxib] + CN(C)C=O, which mass density (x1 = 0.06899) is on record?
Answer: 952.7 ± 0.8 kg/m3

Question: Which mass density (x1 = 0.06044) does the source give for Cc1ccc(-c2ncc(Cl)cc2-c2ccc(S(C)(=O)=O)cc2)cn1 [etoricoxib] + C[S+](C)[O-] here?
Answer: 1105.6 ± 1 kg/m3

Question: For Cc1ccc(-c2ncc(Cl)cc2-c2ccc(S(C)(=O)=O)cc2)cn1 [etoricoxib] + O, which mass density (x1 = 1.56e-05) is on record?
Answer: 994.8 ± 0.8 kg/m3

Question: With Cc1ccc(-c2ncc(Cl)cc2-c2ccc(S(C)(=O)=O)cc2)cn1 [etoricoxib] + OCCCCO as the compound, how does the mass density (x1 = 0.07226) read?
Answer: 1039.8 ± 0.9 kg/m3
